From ChEMBL document CHEMBL1201862, “PubChem BioAssay data set” (2004)
Calls of active or inactive are those of the source. Unless noted, no cut-off for these calls is given here.

Legend:
[1] = target: T1, Peroxisome proliferator-activated receptor gamma (Homo sapiens, UniProt P37231); experiment: competitive ligand displacement at PPARg – biochemical, TR-FRET, LanthaScreen, PPARg partial agonist project, dose response (AID 504446)
[2] = target: T1, Peroxisome proliferator-activated receptor gamma; experiment: PPARg transcriptional activation, reporter cells – cell-based, luminescence, assay provider, dose response (AID 504447); format: functional
[3] = target: Peroxisome proliferator-activated receptor alpha (Homo sapiens, UniProt Q07869); experiment: Late stage assay provider counterscreen for partial agonists of the peroxisome proliferator-activated receptor gamma (PPARg): Luminescence-based cell-based dose response assay for partial agonists of the peroxisome proliferator-activated receptor alpha (PPARA). [Related pubchem assays (depositor defined):AID1051, AID1300, AID1319, AID1679, AID1808, AID504446, AID504447, AID504452, AID504453, AID631]; format: functional
Large T antigen = Large T antigen (Simian virus 40, UniProt P03070); format: functional, Betapolyomavirus macacae;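 note: Confirmatory-stage PubChem screen for compounds that inhibit SV40 T antigen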
[4] = target: Induced myeloid leukemia cell differentiation protein Mcl-1 (Homo sapiens, UniProt Q07820); format: functional
[5] = target: Intestinal-type alkaline phosphatase (Homo sapiens, UniProt P09923); experiment: activation of human intestinal alkaline phosphatase – biochemical, dose response (AID 488873); format: functional
[6] = target: T2, Intestinal-type alkaline phosphatase (Mus musculus, UniProt P24822); experiment: mouse intestinal alkaline phosphatase activators, dose response, biochemical, luminescence, uHTS hits (AID 488783); format: functional
[7] = target: T3, Alkaline phosphatase, tissue-nonspecific isozyme (Homo sapiens, UniProt P05186); experiment: activation of tissue-nonspecific alkaline phosphatase – biochemical, TNAP isozyme, mouse IAP uHTS hits, selectivity assay for mouse IAP activator project, dose response (AID 488880); format: functional
T3 sequence (P05186 whole entry): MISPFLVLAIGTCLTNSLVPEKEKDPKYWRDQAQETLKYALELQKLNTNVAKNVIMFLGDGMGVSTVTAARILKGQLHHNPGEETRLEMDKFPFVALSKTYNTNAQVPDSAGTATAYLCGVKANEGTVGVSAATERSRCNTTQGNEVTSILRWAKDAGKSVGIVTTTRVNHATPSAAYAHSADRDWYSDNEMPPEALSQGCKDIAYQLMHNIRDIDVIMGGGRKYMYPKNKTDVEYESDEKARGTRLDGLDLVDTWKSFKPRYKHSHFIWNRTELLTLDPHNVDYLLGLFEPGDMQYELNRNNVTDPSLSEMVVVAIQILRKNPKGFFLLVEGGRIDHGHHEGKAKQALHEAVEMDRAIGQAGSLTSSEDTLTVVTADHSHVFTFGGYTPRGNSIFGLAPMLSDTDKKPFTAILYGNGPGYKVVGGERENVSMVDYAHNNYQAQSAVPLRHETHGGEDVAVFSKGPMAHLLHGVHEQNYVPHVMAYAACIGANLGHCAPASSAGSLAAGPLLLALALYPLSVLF

[8] = target: T4, DNA dC->dU-editing enzyme APOBEC-3A (Homo sapiens, UniProt P31941); experiment: SAR analysis of small molecule inhibitors of APOBEC3A DNA Deaminase via a fluorescence-based single-stranded DNA deaminase assay - Set 2.; format: functional; details: read-out: IC50_Mean
[9] = target: T5, DNA dC->dU-editing enzyme APOBEC-3G (Homo sapiens, UniProt Q9HC16); experiment: SAR analysis of small molecule inhibitors of APOBEC3G DNA Deaminase via a fluorescence-based single-stranded DNA deaminase assay - Set 2.; format: functional; details: read-out: IC50_Mean
[10] = target: T5, DNA dC->dU-editing enzyme APOBEC-3G; experiment: inhibition of APOBEC3G ssDNA deamination – biochemical, fluorescence, single-stranded DNA substrate, SAR follow-up (AID 602136); format: functional; details: read-out: IC50_Mean
[11] = target: T4, DNA dC->dU-editing enzyme APOBEC-3A; experiment: SAR analysis of small molecule inhibitors of APOBEC3A DNA Deaminase via a fluorescence-based single-stranded DNA deaminase assay.; format: functional; details: read-out: IC50_Mean
[12] = target: Runt-related transcription factor 1/Core-binding factor subunit beta (Homo sapiens, UniProt Q01196+Q13951); experiment: Confirmation of compounds inhibiting the binding between the RUNX1 Runt domain and CBFb-SMMHC via a fluorescence resonance energy transfer (FRET) assay. [Related pubchem assays (depositor defined):AID1434, AID1438, AID1496, AID1550, AID1645]; format: protein assay
[13] = target: Sphingosine 1-phosphate receptor 5 (Homo sapiens, UniProt Q9H228); experiment: (§1) Late-stage fluorescence-based dose-response cell-based assay to identify agonists of the Sphingosine 1-Phosphate Receptor 4 (S1P4): Sphingosine 1-Phosphate Receptor 5 (S1P5) counterscreen assay. [Related pubchem assays (depositor defined):AID1509, AID1523, AID1563, AID1686, AID1701, AID1801, AID463107, AID463225, AID504400]; format: functional
[14] = target: T6, Sphingosine 1-phosphate receptor 4 (Homo sapiens, UniProt O95977); experiment: potency of S1P4 activators – cell-based, fluorescence, synthesized compounds, late-stage follow-up (AID 463107); format: functional
T6 sequence (O95977 whole entry): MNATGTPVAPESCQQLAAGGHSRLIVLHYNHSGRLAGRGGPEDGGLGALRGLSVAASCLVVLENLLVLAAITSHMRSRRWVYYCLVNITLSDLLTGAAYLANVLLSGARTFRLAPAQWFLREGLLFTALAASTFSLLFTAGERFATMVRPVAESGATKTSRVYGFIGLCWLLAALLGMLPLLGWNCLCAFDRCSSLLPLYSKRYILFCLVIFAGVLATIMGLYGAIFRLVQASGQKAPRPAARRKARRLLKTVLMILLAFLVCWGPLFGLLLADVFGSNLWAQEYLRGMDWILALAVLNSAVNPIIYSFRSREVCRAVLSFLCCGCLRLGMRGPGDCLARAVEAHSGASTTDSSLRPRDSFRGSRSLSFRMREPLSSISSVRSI

[15] = target: Sphingosine 1-phosphate receptor 1 (Homo sapiens, UniProt P21453); experiment: as §1, with “1 (S1P1)” for “5 (S1P5)”; format: functional
[16] = target: Sphingosine 1-phosphate receptor 2 (Homo sapiens, UniProt O95136); experiment: as §1, with “2 (S1P2)” for “5 (S1P5)”; format: functional
[17] = target: Sphingosine 1-phosphate receptor 3 (Homo sapiens, UniProt Q99500); experiment: as §1, with “3 (S1P3)” for “5 (S1P5)”; format: functional
[18] = target: T7, Kappa-type opioid receptor (Homo sapiens, UniProt P41145); experiment: kappa opioid receptor activation by imaging – image-based, set 3, SAR follow-up (AID 488833); format: functional
Mu-type opioid receptor = Mu-type opioid receptor (Homo sapiens, UniProt P35372); experiment: SAR Analysis of Agonists of the MOR Receptor using an Image-Based Assay - Set 3. [Related pubchem assays (depositor defined):AID1777, AID1785, AID1786, AID1966, AID2133, AID2136, AID2284, AID2285, AID2352]; format: functional
[19] = target: Delta-type opioid receptor (Homo sapiens, UniProt P41143); experiment: SAR Analysis of Agonists of the DOR Receptor using an Image-Based Assay - Set 3. [Related pubchem assays (depositor defined):AID1777, AID1786]; format: functional
[20] = target: T7, Kappa-type opioid receptor; experiment: SAR analysis of small molecule agonists of the kappa opioid receptor via a luminescent beta-arrestin assay - Set 3. [Related pubchem assays (depositor defined):AID1777, AID1785, AID1786, AID1966, AID2133, AID2136, AID2284, AID2500]; format: functional
[21] = target: T8, Tyrosine-protein phosphatase non-receptor type 7 (Homo sapiens, UniProt P35236); format: functional
T8 sequence (P35236 whole entry): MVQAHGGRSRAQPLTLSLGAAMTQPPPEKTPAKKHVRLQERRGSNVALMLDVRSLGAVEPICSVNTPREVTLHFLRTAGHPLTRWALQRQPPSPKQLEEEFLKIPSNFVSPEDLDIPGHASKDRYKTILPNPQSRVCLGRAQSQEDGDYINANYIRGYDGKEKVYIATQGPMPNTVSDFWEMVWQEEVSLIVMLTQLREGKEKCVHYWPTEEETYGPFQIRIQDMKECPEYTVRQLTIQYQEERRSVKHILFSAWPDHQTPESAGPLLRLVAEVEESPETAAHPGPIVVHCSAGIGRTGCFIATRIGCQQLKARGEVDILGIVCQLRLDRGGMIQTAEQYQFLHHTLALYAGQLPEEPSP

[22] = target: T9, Tyrosine-protein phosphatase non-receptor type 22 (Homo sapiens, UniProt Q9Y2R2); format: functional
T9 sequence (Q9Y2R2 whole entry): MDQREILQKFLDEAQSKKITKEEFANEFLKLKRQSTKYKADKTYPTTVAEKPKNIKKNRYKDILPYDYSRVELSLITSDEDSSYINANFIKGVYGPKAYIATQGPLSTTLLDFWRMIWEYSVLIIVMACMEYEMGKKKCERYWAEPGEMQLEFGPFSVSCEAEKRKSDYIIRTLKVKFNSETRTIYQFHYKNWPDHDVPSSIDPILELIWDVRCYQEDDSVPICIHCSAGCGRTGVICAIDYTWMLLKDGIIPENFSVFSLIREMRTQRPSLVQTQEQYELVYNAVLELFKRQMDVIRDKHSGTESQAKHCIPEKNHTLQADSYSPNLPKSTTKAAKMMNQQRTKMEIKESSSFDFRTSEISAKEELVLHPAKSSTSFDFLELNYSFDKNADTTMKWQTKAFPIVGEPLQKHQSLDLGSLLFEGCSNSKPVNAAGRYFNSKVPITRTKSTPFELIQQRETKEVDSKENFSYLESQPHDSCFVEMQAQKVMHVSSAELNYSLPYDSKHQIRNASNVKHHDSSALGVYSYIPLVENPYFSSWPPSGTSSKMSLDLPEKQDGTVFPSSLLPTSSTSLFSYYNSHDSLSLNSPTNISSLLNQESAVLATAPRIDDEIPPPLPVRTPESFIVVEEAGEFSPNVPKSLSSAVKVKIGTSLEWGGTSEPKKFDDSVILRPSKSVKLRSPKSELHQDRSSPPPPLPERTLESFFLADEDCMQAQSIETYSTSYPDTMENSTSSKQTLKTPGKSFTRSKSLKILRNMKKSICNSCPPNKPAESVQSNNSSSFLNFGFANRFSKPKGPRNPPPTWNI

[23] = target: T9, Tyrosine-protein phosphatase non-receptor type 22; format: functional; remark: listed apart in the source
[24] = target: T10, RNA-binding protein pos-1 (Caenorhabditis elegans, UniProt G5EF15); experiment: disruptors of C. elegans POS-1 RNA interaction – biochemical, fluorescence polarization, dose response (AID 1964);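 note: purified POS-1 fused to maltose binding protein made in E. coli; potency of compounds blocking POS-1 binding to fluorescent RNA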
T10 sequence (G5EF15 whole entry): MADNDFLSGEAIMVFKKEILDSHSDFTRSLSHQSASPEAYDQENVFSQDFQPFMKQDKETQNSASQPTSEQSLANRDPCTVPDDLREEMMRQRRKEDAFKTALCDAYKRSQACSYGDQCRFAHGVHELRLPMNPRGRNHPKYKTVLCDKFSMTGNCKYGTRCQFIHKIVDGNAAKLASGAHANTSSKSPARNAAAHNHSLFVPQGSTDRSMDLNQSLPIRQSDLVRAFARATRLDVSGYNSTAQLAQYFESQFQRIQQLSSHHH

[25] = target: T11, Zinc finger protein mex-5 (Caenorhabditis elegans, UniProt Q9XUB2); experiment: potency of MEX-5 RNA-binding blockers – biochemical, C. elegans, fluorescence polarization, dose response (AID 1960)
T11 sequence (Q9XUB2 whole entry): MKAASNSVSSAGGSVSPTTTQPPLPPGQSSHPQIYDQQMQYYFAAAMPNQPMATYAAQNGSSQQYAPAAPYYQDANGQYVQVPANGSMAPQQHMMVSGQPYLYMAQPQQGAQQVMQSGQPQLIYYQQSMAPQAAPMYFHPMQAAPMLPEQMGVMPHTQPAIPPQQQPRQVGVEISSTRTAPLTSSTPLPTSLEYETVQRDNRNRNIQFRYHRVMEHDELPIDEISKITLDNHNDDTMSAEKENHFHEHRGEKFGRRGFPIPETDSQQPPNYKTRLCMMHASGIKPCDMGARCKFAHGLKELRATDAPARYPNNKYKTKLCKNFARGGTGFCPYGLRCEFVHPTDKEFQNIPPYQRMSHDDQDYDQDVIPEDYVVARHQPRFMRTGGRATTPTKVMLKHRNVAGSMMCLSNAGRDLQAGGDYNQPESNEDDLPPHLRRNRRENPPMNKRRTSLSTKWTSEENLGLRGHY

[26] = target: T2, Intestinal-type alkaline phosphatase; experiment: PubChem AID 488785; format: functional
[27] = target: T3, Alkaline phosphatase, tissue-nonspecific isozyme; experiment: TNAP enzyme inhibition by screening hits, dose response, selectivity assay for mouse IAP inhibitor project, biochemical, human TNAP, uHTS hits (AID 488906); format: functional

T7 sequence (P41145 whole entry): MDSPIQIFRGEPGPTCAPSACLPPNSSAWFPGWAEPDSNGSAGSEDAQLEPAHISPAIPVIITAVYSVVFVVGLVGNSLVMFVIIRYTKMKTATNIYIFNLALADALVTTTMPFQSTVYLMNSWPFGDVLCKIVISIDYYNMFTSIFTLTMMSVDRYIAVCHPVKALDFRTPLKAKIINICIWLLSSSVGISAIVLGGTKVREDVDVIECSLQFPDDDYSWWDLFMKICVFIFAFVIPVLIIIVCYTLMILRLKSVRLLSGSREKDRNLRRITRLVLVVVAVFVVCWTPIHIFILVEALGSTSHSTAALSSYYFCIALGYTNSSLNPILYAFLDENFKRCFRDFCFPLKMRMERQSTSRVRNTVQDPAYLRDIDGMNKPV
T1 sequence (P37231 whole entry): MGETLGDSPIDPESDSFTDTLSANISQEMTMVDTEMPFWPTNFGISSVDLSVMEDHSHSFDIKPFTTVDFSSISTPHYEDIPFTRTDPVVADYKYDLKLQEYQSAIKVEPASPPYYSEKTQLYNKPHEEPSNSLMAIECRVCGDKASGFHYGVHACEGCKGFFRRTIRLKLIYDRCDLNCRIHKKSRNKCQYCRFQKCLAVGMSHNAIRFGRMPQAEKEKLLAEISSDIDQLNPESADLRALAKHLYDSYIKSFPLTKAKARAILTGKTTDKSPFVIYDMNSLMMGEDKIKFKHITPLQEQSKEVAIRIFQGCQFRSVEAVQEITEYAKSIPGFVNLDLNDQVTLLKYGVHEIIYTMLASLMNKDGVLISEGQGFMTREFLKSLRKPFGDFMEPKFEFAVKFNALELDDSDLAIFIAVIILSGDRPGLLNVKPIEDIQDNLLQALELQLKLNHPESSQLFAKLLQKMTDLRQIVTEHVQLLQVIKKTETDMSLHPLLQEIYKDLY
T5 sequence (Q9HC16 whole entry): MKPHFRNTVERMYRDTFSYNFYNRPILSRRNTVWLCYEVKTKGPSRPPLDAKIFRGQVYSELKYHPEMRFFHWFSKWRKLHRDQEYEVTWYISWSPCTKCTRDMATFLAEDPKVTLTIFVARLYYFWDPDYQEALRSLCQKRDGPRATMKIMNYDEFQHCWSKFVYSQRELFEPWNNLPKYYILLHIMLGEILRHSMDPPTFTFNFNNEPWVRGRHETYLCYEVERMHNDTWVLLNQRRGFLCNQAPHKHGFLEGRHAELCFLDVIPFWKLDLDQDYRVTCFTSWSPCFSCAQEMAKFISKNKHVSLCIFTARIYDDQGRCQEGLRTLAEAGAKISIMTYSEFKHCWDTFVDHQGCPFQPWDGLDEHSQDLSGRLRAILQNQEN
T2 sequence (P24822 whole entry): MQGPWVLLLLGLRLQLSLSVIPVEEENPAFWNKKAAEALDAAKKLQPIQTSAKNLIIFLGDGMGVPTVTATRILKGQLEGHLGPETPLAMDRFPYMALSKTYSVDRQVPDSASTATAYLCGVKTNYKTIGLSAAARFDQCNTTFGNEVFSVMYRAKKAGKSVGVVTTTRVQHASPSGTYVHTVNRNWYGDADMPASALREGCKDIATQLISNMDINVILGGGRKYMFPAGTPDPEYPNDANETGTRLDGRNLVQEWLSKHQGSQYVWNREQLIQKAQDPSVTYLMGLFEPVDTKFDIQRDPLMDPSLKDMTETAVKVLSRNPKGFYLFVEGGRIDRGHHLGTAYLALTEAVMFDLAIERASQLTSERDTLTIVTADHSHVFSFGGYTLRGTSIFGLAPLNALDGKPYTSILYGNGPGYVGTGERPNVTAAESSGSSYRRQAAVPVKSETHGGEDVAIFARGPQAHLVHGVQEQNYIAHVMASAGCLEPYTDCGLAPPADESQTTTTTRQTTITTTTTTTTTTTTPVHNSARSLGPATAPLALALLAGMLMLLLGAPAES
T4 sequence (P31941 whole entry): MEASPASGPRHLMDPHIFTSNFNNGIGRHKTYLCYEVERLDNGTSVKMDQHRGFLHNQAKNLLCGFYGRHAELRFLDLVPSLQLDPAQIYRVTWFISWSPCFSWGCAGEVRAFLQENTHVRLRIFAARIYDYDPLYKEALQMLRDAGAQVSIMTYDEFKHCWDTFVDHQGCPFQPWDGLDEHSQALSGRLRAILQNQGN
Chain of Intestinal-type alkaline phosphatase (Homo sapiens, UniProt P09923) (P09923 whole entry): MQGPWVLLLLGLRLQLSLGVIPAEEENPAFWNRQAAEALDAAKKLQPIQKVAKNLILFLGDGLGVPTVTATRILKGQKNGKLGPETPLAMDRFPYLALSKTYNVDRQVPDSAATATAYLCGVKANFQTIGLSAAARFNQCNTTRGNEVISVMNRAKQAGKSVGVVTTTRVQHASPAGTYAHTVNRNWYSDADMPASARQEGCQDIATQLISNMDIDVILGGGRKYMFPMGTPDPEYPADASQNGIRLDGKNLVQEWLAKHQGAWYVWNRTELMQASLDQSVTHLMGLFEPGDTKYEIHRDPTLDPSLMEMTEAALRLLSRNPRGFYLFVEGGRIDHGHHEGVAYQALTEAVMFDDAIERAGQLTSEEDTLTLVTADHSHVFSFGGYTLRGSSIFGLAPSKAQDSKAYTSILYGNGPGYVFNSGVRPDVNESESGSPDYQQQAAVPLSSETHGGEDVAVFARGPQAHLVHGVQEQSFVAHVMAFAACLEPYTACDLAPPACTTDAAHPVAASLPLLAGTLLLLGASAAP
Chain of Sphingosine 1-phosphate receptor 1 (P21453 whole entry): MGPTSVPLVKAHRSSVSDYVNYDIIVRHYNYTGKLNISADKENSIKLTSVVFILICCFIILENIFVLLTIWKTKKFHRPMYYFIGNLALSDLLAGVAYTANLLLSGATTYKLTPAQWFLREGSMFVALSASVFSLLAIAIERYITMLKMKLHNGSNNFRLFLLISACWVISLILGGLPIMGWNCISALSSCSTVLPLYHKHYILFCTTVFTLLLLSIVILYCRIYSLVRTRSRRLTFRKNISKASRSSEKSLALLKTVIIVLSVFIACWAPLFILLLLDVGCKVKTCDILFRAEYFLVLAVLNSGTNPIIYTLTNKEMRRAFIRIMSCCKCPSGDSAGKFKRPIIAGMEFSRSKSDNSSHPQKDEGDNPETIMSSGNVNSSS
Chain of Induced myeloid leukemia cell differentiation protein Mcl-1 (Q07820 whole entry): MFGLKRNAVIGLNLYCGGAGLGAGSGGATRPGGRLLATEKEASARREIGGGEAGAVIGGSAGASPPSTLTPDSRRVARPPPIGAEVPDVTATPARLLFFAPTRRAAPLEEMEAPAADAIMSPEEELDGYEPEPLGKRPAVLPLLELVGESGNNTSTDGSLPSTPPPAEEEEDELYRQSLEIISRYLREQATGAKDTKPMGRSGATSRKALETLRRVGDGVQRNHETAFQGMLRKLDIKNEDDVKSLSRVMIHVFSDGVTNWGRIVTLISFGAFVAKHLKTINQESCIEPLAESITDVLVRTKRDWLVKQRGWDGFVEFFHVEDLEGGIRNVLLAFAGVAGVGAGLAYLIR
Chain of Sphingosine 1-phosphate receptor 2 (O95136 whole entry): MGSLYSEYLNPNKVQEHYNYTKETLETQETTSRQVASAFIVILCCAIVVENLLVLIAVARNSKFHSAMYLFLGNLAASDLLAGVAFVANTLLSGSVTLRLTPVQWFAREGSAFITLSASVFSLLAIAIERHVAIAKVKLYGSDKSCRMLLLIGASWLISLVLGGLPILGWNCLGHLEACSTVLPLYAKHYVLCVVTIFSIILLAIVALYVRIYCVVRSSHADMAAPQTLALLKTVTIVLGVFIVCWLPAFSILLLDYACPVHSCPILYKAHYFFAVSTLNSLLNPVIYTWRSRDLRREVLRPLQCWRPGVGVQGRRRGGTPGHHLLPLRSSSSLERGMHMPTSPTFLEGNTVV
Chain of Sphingosine 1-phosphate receptor 3 (Q99500 whole entry): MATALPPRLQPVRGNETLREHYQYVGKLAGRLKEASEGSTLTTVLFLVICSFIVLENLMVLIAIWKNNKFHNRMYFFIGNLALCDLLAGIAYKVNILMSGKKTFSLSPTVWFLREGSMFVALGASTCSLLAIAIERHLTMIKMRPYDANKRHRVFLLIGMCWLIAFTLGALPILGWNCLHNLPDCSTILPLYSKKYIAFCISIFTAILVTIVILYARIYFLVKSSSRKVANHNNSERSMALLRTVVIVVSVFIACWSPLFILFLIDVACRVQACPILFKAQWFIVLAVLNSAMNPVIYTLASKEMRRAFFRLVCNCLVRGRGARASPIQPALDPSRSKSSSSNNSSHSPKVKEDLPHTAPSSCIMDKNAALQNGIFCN
Chain of Delta-type opioid receptor (P41143 whole entry): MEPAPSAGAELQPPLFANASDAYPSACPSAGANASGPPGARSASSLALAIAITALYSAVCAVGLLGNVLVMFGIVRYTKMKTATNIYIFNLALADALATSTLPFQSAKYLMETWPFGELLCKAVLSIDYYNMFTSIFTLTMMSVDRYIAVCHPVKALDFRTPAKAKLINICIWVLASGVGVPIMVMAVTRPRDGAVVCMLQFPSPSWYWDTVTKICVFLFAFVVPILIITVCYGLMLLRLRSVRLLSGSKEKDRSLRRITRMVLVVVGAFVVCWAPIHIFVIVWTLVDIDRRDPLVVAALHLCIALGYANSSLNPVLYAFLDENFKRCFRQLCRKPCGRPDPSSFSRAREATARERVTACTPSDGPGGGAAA
Chain of Mu-type opioid receptor (P35372 whole entry): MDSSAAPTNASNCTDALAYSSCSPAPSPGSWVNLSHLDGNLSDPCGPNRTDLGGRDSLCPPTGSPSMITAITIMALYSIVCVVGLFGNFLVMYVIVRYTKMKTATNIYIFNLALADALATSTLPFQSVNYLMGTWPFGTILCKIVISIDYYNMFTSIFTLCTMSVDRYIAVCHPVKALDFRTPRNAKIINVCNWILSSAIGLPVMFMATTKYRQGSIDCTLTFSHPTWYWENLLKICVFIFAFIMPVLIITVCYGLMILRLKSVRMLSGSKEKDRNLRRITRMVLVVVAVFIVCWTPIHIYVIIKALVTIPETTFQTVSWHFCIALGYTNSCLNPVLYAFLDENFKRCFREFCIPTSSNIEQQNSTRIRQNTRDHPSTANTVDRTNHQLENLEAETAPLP

## O=C(O)CCN1C(=O)/C(=C\c2cccc(OCc3ccccc3)c2)SC1=S
[1]
  IC50: 276 nM (active)
[2]
  EC50: 1.5 µM (active)
[3]
  EC50: > 3 µM (inactive)

## O=C1NC(=S)NC(=O)C1=Cc1ccc2c(c1)CCN2CCCCl
Large T antigen
  IC50: 28.8 µM (active)
[4]
  IC50: > 54 µM (active)
[5]
  EC50: 96.3 µM (active)
[6]
  EC50: 76.6 µM (active)
[7]
  EC50: 55.5 µM (active)
[8]
  IC50: 6.63 µM (active)
[9]
  IC50: 4.14 µM (active)
[10]
  IC50: 2.91 µM (active)
[11]
  IC50: 9.27 µM (active)

## CCc1ccc(S(=O)(=O)Nc2ccc(-c3nc4cccnc4s3)cc2)s1
[12]
  IC50: > 100 µM (inactive)

## C/N=C1\SC(=Cc2cc(C)n(Cc3c(F)cccc3F)c2C)C(=O)N1OC
[13]
  EC50: 339 nM (active)
[14]
  EC50: 88.6 nM (active)
[15]
  EC50: 113 nM (active)
[16]
  EC50: > 50 µM (inactive)
[17]
  EC50: > 50 µM (inactive)

## Cc1cc(C)c(CSc2nnc(-c3ccccn3)n2Cc2cccs2)c(C)c1
[18]
  EC50: 9.5 µM (active)
Mu-type opioid receptor
  EC50: > 32 µM (inactive)
[19]
  EC50: > 32 µM (inactive)
[20]
  EC50: > 20 µM (inactive)

## N/C(=N\N=C\c1ccc2c(c1)OCO2)SC1CC(=O)N(c2ccc(C(=O)O)cc2)C1=O (stereo not given)
[21]
  IC50: 7.33 µM (active)
[22]
  IC50: 7.65 µM (active)
[23]
  IC50: 8.58 µM (active)

## O=C(O)Cc1ccc(O)c(O)c1 [3,4-DIHYDROXYPHENYLACETIC ACID]
[24]
  EC50: 49.8 µM (active)
[25]
  EC50: 28.9 µM (active)
[5]
  EC50: > 100 µM (inactive)
[26]
  IC50: 4.17 µM (active)
[27]
  IC50: > 100 µM (inactive)
